Data published in publication PMC7467569, “The Progesterone 5β-Reductase/Iridoid Synthase Family: A Catalytic Reservoir for Specialized Metabolism across Land Plants” (ACS Chemical Biology, 2020).

Columns and labels:
Digitalis purpurea 2 = target: T1, Digitalis purpurea 2 (Digitalis purpurea, UniProt D2JSQ9); assay: NADPH consumption at […] nm; type: biochemical; details: 250 μM NADPH, 50 mM HEPES/NaOH pH 7.0, 100 mM NaCl, 25 °C, 0.1% tetrahydrofuran; read-out: 8-Oxogeranial / KM
T1 construct: gene P5BR2; synthetic gene in pOPINF, N-terminal His6 tag (no cleavage told), E. coli

[1] = target: T2, Catharanthus roseus 5 (PRISE5, ISY) (Catharanthus roseus, UniProt K7WDL7); assay: NADPH consumption at […] nm; type: biochemical; details: read-out: Progesterone / KM; 250 μM NADPH, 50 mM HEPES/NaOH pH 7.0, 100 mM NaCl, 25 °C, 1.5% ethanol
T2 construct: codon-optimized gene from earlier study in pOPINF, N-terminal His6 tag (no cleavage told), E. coli

Row | Compound | Km (Digitalis purpurea 2) | Km [1]
1 | C/C(C=O)=C\CC/C(C)=C/C=O [8-oxogeranial] | 17.7 ± 5.9 µM | –
2 | CC(=O)[C@H]1CC[C@H]2[C@@H]3CCC4=CC(=O)CC[C@]4(C)[C@H]3CC[C@]12C [progesterone] | – | 28.8 ± 11.5 µM
